Assays:
PLA2G16 = molecular target: T1, PLA2G16 (Homo sapiens, UniProt P53816); assay: Enzyme activity assay for PLA2G16 (Red/Green BODIPY PC-A2 fluorescence); assay type: biochemical; conditions: His-tagged PLA2G16, 4 min pre-incubation, compound 2 nM to 50 μM; first symbol in parentheses
T1 construct: Hexa-His (N); made in house; host or cells: E. coli BL21(DE3)
T1 sequence (P53816 1-162): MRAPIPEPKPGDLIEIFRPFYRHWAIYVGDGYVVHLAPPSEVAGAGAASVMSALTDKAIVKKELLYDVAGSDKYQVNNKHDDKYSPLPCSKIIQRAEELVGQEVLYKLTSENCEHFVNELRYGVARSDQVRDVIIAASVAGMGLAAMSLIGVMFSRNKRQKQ
Source text: Purification and Enzyme Activity Assay for PLA2G16
A cDNA for PLA2G16 (NM_007069) was custom-synthesized by Genscript (Piscataway, USA) and inserted into a pET-based bacterial expression vector [Moffatt, B. A. and Studier, F. W. (1986) J. Mol. Biol. 189, 113-130; Rosenberg, A. H., Lade, B. N., Chui, D., Lin, S., Dunn, J. J., and Studier, F. W. (1987) Gene 56, 125-135], enabling the expression of N-terminally Hexa-His-tagged PLA2G16. E. coli BL21(DE3) (Agilent) were transformed with pET-His-PLA2G16 according to the manufacturer's instructions and plated on Carbenicillin-containing agar plates (final concentration: 100 μg/mL). A single clone was inoculated in 100 mL LB medium supplemented with 100 μg/mL Carbenicillin and the inoculated culture was grown at 37° C. overnight in a rotary shaker. On the next day, the bacterial culture was diluted in LB medium supplemented with 100 μg/mL Carbenicillin (30 mL overnight culture in 800 mL total culture volume). Bacteria were grown at 37° C. until the OD600 reached 0.6. Gene expression was induced by addition of 1 mM isopropyl-β-D-thiogalactopyranosid (IPTG) for 2 h at 18° C. Subsequently, bacteria were harvested by centrifugation (15 min; 10,000×g; 4° C.) and frozen at −80° C. The bacterial pellet was resuspended in Buffer A (50 mM Tris/HCl pH 7.5, 500 mM NaCl, 5% glycerol, 5 mM β-Mercaptoethanol and 1 mM PMSF) and lysed by addition of 1 mg/mL lysozyme (Sigma Aldrich) and 100 μg/mL DNasel-(Roche). The sample was incubated at 30° C. for 30 min to allow lysis to occur. Then, the lysate was cleared by centrifugation (15,000×g, 15 min, 4° C.) and incubated with 1.5 mL Ni-NTA agarose suspension (Qiagen) for 60 min at 4° C. The Ni-NTA agarose was washed with 10 mL Buffer A. Bound protein was eluted by applying a manual gradient of Buffer A supplemented with increasing concentrations of imidazole (Sigma Aldrich; 25/50/75/100/250 mM). Purified fractions were analyzed by SDS-PAGE followed by Coomassie staining to assess the purity.
Activity of the protein was assessed as follows:
Red/Green BODIPY® PC-A2 (Invitrogen, 1 mM in DMSO) was mixed with equal volumes of 1,2-Dioleoyl-sn-glycero-3-phosphocholine (DOPC; Sigma Aldrich, 10 mM in Ethanol) and 1,2-Dioleoyl-sn-glycero-3-phospho-rac-(1-glycerol) (DOPG; Sigma Aldrich, 10 mM in Ethanol) and 0.5 volumes of Cholesterol (CHOL; Sigma Aldrich, 10 mM in Ethanol) and vortexed for 5 s. The mixture (Red/Green BODIPY® PC-A2/DOPC/DOPG/CHOL) was diluted 1:91.4 in activity assay buffer (50 mM Tris/HCl pH 8.5, 100 mM NaCl) using a small-orifice pipette tip under constant vortexing. In the following, this preparation will be referred to as the “substrate solution”.
In order to evaluate their inhibitory potential, compounds were dissolved at 10 mM concentration in DMSO and directly spotted into assay plates (Corning, Cat. No. 3576) using acoustic liquid transfer (Labcyte Echo 525). Each compound was spotted at increasing concentrations, ranging from 2 nM to 50 μM (concentration in the final assay volume). 50 μl of PLA2G16 enzyme solution (diluted in activity buffer, supplemented with 5 mM L-Glutathione; Sigma Aldrich) was pre-incubated with compounds for 4 min., followed by addition of 50 μl of substrate solution. Fluorescence was recorded immediately after substrate addition for a total time of 10 min. using a SpectraMax M5 multimode reader (Excitation wavelength: 480 nm, emission wavelength: 530 nm). The relative increase of fluorescence over time is referred to as the enzyme activity. Half-maximal inhibitory concentrations (IC50) were derived by non-linear regression analysis using the drc package in R (R Development. Core Team, 2005).

[1] = test system: picornaviruses (CVB1, HRV-A2, HRV-A23, EV-68); assay: Anti-picornavirus cytopathic effect (CPE) reduction assay on HeLa H1 cells; assay type: cell-based; conditions: 48 h, category from averaging EC50 values of four picornaviruses (CVB1, HRV-A2, HRV-A23, EV68), second symbol in parentheses
Experimental: Anti-Picornavirus Assay in Mammalian Cell Culture
The antiviral activity of selected compounds was tested using a cytopathic effect (CPE) reduction assay on HeLa H1 cells (ATCC CRL-1958). Briefly, cells were seeded in 96-well dishes (2×10^4 cells/well) in DMEM medium (Life technologies) supplemented with 10% FBS and PenStrep solution (100 U/mL Penicillin and 100 μg/mL streptomycin) and incubated at 37° C., 5% CO2 overnight. The next day, cells were pre-treated with serial dilutions of the compound in DMEM medium supplemented with 2% FBS and PenStrep for 2 h at 37° C., 5% CO2. Next, cells were infected with virus (CVB1, HRV-A2, HRV-A23, EV-68) at an multiplicity of infection (MOI) which results in a complete virus-induced CPE within 2 days in control wells (infected and vehicle-treated). After 48 h, supernatants were aspirated and 50 μl/well of CellTiterBlue reagent (Promega) diluted 1:5 in DMEM+2% FBS, was added to the cells. Plates were returned to the incubator and allowed to develop for 1.5 h. After that, plates were equilibrated to RT and subsequently, fluorescence was recorded (Excitation wavelength: 560 nm; emission wavelength: 590 nm) using a SpectraMax M5 multimode plate reader. Viability of cells was calculated according to the formula: V=(RFUCpd−RFUVeh/(RFUM−RFUVeh), where RFUCpd refers to infected and compound-treated cells, RFUVeh to infected and vehicle-treated cells and RFUM to uninfected and vehicle treated cells. Half-maximal effective concentrations (EC50) were calculated by non-linear regression analysis using the drc package in R (R Development. Core Team, 2005). EC50 categories as presented in Table 2 were calculated by averaging the EC50 values from four picornaviruses (CVB1, HRV-A2, HRV-A23, EV68).

NC(=O)c1ccc(CN2C[C@H](C(=O)C(=O)NC3CC3)[C@@H](Cc3ccccc3)C2=O)cc1 (racemic)
IC50 (PLA2G16): < 1 µM

O=C(NCC1CC1)C(=O)[C@H]1CNC(=O)[C@@H]1Cc1ccccc1 (racemic) [FP-1, Rac-2-[(3R,4R)-4-benzyl-5-oxopyrrolidin-3-yl]-N-(cyclopropylmethyl)-2-oxoacetamide]
IC50 (PLA2G16): < 1 µM | EC50 [1]: < 1 µM

O=C(NC1CC1)C(=O)[C@H]1CNC(=O)[C@@H]1Cc1ccccc1 (racemic) [FP-2, Rac-2-[(3R,4R)-4-benzyl-5-oxopyrrolidin-3-yl]-N-cyclopropyl-2-oxoacetamide]
IC50 (PLA2G16): < 1 µM | EC50 [1]: < 1 µM

CCNC(=O)C(=O)[C@H]1CNC(=O)[C@@H]1Cc1ccccc1 (racemic) [FP-3, Rac-2-[(3R,4R)-4-benzyl-5-oxopyrrolidin-3-yl]-N-ethyl-2-oxoacetamide]
IC50 (PLA2G16): < 1 µM | EC50 [1]: < 1 µM

O=C(NCC(F)F)C(=O)[C@H]1CNC(=O)[C@@H]1Cc1ccccc1 (racemic) [FP-4, Rac-2-[(3R,4R)-4-benzyl-5-oxopyrrolidin-3-yl]-N-(2,2-difluoroethyl)-2-oxoacetamide]
IC50 (PLA2G16): < 1 µM | EC50 [1]: < 1 µM

CC(C)NC(=O)C(=O)[C@H]1CNC(=O)[C@@H]1Cc1ccccc1 (racemic) [FP-5, Rac-2-[(3R,4R)-4-benzyl-5-oxopyrrolidin-3-yl]-2-oxo-N-(propan-2-yl)acetamide]
IC50 (PLA2G16): < 1 µM | EC50 [1]: < 1 µM

N#CCCNC(=O)C(=O)[C@H]1CNC(=O)[C@@H]1Cc1ccccc1 (racemic) [FP-6, Rac-2-[(3R,4R)-4-benzyl-5-oxopyrrolidin-3-yl]-N-(2-cyanoethyl)-2-oxoacetamide]
IC50 (PLA2G16): < 1 µM | EC50 [1]: 1 to 10 µM

O=C(NC1CCOCC1)C(=O)[C@H]1CNC(=O)[C@@H]1Cc1ccccc1 (racemic) [FP-7, Rac-2-[(3R,4R)-4-benzyl-5-oxopyrrolidin-3-yl]-N-(oxan-4-yl)-2-oxoacetamide]
IC50 (PLA2G16): < 1 µM | EC50 [1]: 1 to 10 µM

CC(C)ONC(=O)C(=O)[C@H]1CNC(=O)[C@@H]1Cc1ccccc1 (racemic) [FP-8, Rac-2-[(3R,4R)-4-benzyl-5-oxopyrrolidin-3-yl]-2-oxo-N-(propan-2-yloxy)acetamide]
IC50 (PLA2G16): < 1 µM | EC50 [1]: 1 to 10 µM

O=C(NOC1CCCCC1)C(=O)[C@H]1CNC(=O)[C@@H]1Cc1ccccc1 (racemic) [FP-9, Rac-2-[(3R,4R)-4-benzyl-5-oxopyrrolidin-3-yl]-N-(cyclohexyloxy)-2-oxoacetamide]
IC50 (PLA2G16): < 1 µM | EC50 [1]: 1 to 10 µM

O=C(NCC1CC1)C(=O)[C@H]1CNC(=O)[C@@H]1c1ccccc1 (racemic) [FP-10, Rac-N-(cyclopropylmethyl)-2-oxo-2-[(3R,4S)-5-oxo-4-phenylpyrrolidin-3-yl]acetamide]
IC50 (PLA2G16): < 1 µM | EC50 [1]: < 1 µM

CC(F)(F)CNC(=O)C(=O)[C@H]1CNC(=O)[C@@H]1c1ccccc1 (racemic) [FP-11, Rac-N-(2,2-difluoropropyl)-2-oxo-2-[(3R,4S)-5-oxo-4-phenylpyrrolidin-3-yl]acetamide]
IC50 (PLA2G16): < 1 µM | EC50 [1]: 1 to 10 µM

CC(F)(F)CNC(=O)C(=O)[C@H]1CNC(=O)[C@@H]1C1CCCCC1 (racemic) [FP-12, Rac-2-[(3R,4R)-4-cyclohexyl-5-oxopyrrolidin-3-yl]-N-(2,2-difluoropropyl)-2-oxoacetamide]
IC50 (PLA2G16): < 1 µM | EC50 [1]: < 1 µM

CC(C)CNC(=O)C(=O)[C@H]1CNC(=O)[C@@H]1c1ccccc1 (racemic) [FP-13, Rac-N-(2-methylpropyl)-2-oxo-2-[(3R,4S)-5-oxo-4-phenylpyrrolidin-3-yl]acetamide]
IC50 (PLA2G16): < 1 µM | EC50 [1]: < 1 µM

O=C(NC1CC1)C(=O)[C@H]1CNC(=O)[C@@H]1c1ccccc1 (racemic) [FP-14, Rac-N-cyclopropyl-2-oxo-2-[(3R,4S)-5-oxo-4-phenylpyrrolidin-3-yl]acetamide]
IC50 (PLA2G16): < 1 µM | EC50 [1]: 1 to 10 µM

CCNC(=O)C(=O)[C@H]1CNC(=O)[C@@H]1c1ccccc1 (racemic) [FP-15, Rac-N-ethyl-2-oxo-2-[(3R,4S)-5-oxo-4-phenylpyrrolidin-3-yl]acetamide]
IC50 (PLA2G16): < 1 µM | EC50 [1]: 1 to 10 µM

O=C(NC1CC(F)(F)C1)C(=O)[C@H]1CNC(=O)[C@@H]1c1ccccc1 (racemic) [FP-16, Rac-N-(3,3-difluorocyclobutyl)-2-oxo-2-[(3R,4S)-5-oxo-4-phenylpyrrolidin-3-yl]acetamide]
IC50 (PLA2G16): < 1 µM | EC50 [1]: 1 to 10 µM

CC(C)(C)NC(=O)C(=O)[C@H]1CNC(=O)[C@@H]1c1ccccc1 (racemic) [FP-17, Rac-N-tert-butyl-2-oxo-2-[(3R,4S)-5-oxo-4-phenylpyrrolidin-3-yl]acetamide]
IC50 (PLA2G16): < 1 µM | EC50 [1]: < 1 µM

CCCNC(=O)C(=O)[C@H]1CNC(=O)[C@@H]1c1ccccc1 (racemic) [FP-18, Rac-2-oxo-2-[(3R,4S)-5-oxo-4-phenylpyrrolidin-3-yl]-N-propylacetamide]
IC50 (PLA2G16): < 1 µM | EC50 [1]: 1 to 10 µM

O=C(NC1CCC1)C(=O)[C@H]1CNC(=O)[C@@H]1c1ccccc1 (racemic) [FP-19, Rac-N-cyclobutyl-2-oxo-2-[(3R,4S)-5-oxo-4-phenylpyrrolidin-3-yl]acetamide]
IC50 (PLA2G16): < 1 µM | EC50 [1]: < 1 µM

CC1(NC(=O)C(=O)[C@H]2CNC(=O)[C@@H]2c2ccccc2)CC1 (racemic) [FP-20, Rac-N-(1-methylcyclopropyl)-2-oxo-2-[(3R,4S)-5-oxo-4-phenylpyrrolidin-3-yl]acetamide]
IC50 (PLA2G16): < 1 µM | EC50 [1]: 1 to 10 µM

O=C(NCC1CCC1)C(=O)[C@H]1CNC(=O)[C@@H]1c1ccccc1 (racemic) [FP-21, Rac-N-(cyclobutylmethyl)-2-oxo-2-[(3R,4S)-5-oxo-4-phenylpyrrolidin-3-yl]acetamide]
IC50 (PLA2G16): < 1 µM | EC50 [1]: < 1 µM
